Measurements as given in patent US11028079B2 (ConverGene LLC, priority 2015, dated 2021).

Target: T1, BRD4 bromodomains (Homo sapiens, UniProt O60885)
T1 construct: fused on or other part: T7 phage capsid protein (phage-display fusion; the phage DNA is read out by qPCR)
Assay: BROMOscan bromodomain competition binding assay (DiscoveRx)
Conditions: Kd from 11 compound concentrations ranging from 0 to 10 μM, read-out: BROMOscan Relative Activity
Procedure, shortened: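 Compounds in 0.1% DMSO/0.9% MEG competed with a solid-phase acetylated peptide for T7 phage-fused BRD4 bromodomains, with the retained bromodomain measured by qPCR.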

SMILES	Kd
Cc1noc(C)c1-c1ccc2nc(C(=O)NC3CCOCC3)cc(NCc3cccc(Cl)c3)c2c1 [Example 236, 4-((3-chlorobenzyl)amino)-6-(3,5-dimethylisoxazol-4-yl)-N-(tetrahydro-2H-pyran-4-yl)quinoline-2-carboxamide]	< 500 nM
Cc1noc(C)c1-c1ccc2nc(C(=O)NC3CN(C)C3)nc(NCc3cncc(Cl)c3)c2c1 [Example 237, 4-(((5-chloropyridin-3-yl)methyl)amino)-6-(3,5-dimethylisoxazol-4-yl)-N-(1-methylazetidin-3-yl)quinazoline-2-carboxamide]	< 500 nM
Cc1nn(C)cc1CNC(=O)c1nc(NCc2cncc(Cl)c2)c2cc(-c3c(C)noc3C)ccc2n1 [Example 238, 4-(((5-chloropyridin-3-yl)methyl)amino)-N-((1,3-dimethyl-1H-pyrazol-4-yl)methyl)-6-(3,5-dimethylisoxazol-4-yl)quinazoline-2-carboxamide]	< 500 nM
Cc1noc(C)c1-c1ccc2nc(C(=O)NCC3CN(C)C3)nc(NC3(c4cccc(Cl)c4)CC3)c2c1 [Example 240, 4-((1-(3-chlorophenyl)cyclopropyl)amino)-6-(3,5-dimethylisoxazol-4-yl)-N-((1-methylazetidin-3-yl)methyl)quinazoline-2-carboxamide]	< 500 nM
Cc1noc(C)c1-c1ccc2nc(N3CCS(=O)(=O)CC3)nc(NCc3cncc(Cl)c3)c2c1 [Example 241, 4-(4-(((5-chloropyridin-3-yl)methyl)amino)-6-(3,5-dimethylisoxazol-4-yl)quinazolin-2-yl)thiomorpholine 1,1-dioxide]	< 500 nM
Cc1noc(C)c1-c1ccc2nc(N3CCS(=O)(=O)CC3)nc(NCc3cccc(Cl)c3)c2c1 [Example 243, 4-(4-((3-chlorobenzyl)amino)-6-(3,5-dimethylisoxazol-4-yl)quinazolin-2-yl)thiomorpholine 1,1-dioxide]	500 to 5000 nM
Cc1noc(C)c1-c1ccc2nc(N3CCN(C(=O)N(C)C)CC3)nc(NCc3cccc(Cl)c3)c2c1 [Example 244, 4-(4-((3-chlorobenzyl)amino)-6-(3,5-dimethylisoxazol-4-yl)quinazolin-2-yl)-N,N-dimethylpiperazine-1-carboxamide]	< 500 nM

Results, then the molecule that gave them:

Kd	SMILES
< 500 nM	Cc1noc(C)c1-c1ccc2nc(C(=O)NCC3CN(C)C3)nc(NCc3cncc(Cl)c3)c2c1 [Example 233, 4-(((5-chloropyridin-3-yl)methyl)amino)-6-(3,5-dimethylisoxazol-4-yl)-N-((1-methylazetidin-3-yl)methyl)quinazoline-2-carboxamide]
< 500 nM	Cc1noc(C)c1-c1ccc2nc(C(=O)NC3CN(C)C3)cc(NCc3cccc(Cl)c3)c2c1 [Example 234, 4-((3-chlorobenzyl)amino)-6-(3,5-dimethylisoxazol-4-yl)-N-(1-methylazetidin-3-yl)quinoline-2-carboxamide]
< 500 nM	Cc1noc(C)c1-c1ccc2nc(C(=O)NC3CCS(=O)(=O)CC3)cc(NCc3cccc(Cl)c3)c2c1 [Example 235, 4-((3-chlorobenzyl)amino)-6-(3,5-dimethylisoxazol-4-yl)-N-(1,1-dioxidotetrahydro-2H-thiopyran-4-yl)quinoline-2-carboxamide]
< 500 nM	Cc1noc(C)c1-c1ccc2nc(C(=O)NC3CCS(=O)(=O)CC3)nc(NCc3cncc(Cl)c3)c2c1 [Example 239, 4-(((5-chloropyridin-3-yl)methyl)amino)-6-(3,5-dimethylisoxazol-4-yl)-N-(1,1-dioxidotetrahydro-2H-thiopyran-4-yl)quinazoline-2-carboxamide]
< 500 nM	Cc1noc(C)c1-c1ccc2nc(C(=O)NC3CN(C)C3)nc(NC3(c4cccc(Cl)c4)CC3)c2c1 [Example 242, 4-((1-(3-chlorophenyl)cyclopropyl)amino)-6-(3,5-dimethylisoxazol-4-yl)-N-(1-methylazetidin-3-yl)quinazoline-2-carboxamide]
